The conditions of the series: at the end of the third month after implantation.

Regarding `Cc1nc2n(c(=O)c1CCN1CCC(c3noc4cc(F)ccc34)CC1)CCCC2` [Risperidone, risperidone], the “presence of risperidone in the dog plasma” value is on record as “still present at a high level”.

The values above are taken from patent publication US9078900B2 (priority 2008, dated 2015).
